The text below walks through data of patent publication US6777425B2, “Isoquinoline compounds having antiinfective activity” (Genesoft Pharmaceuticals, Inc., priority 2001, dated 2004).

Some results are limits rather than exact numbers.

In one test the test system is B. cereus ATCC 11778. In words: NCCLS broth microdilution MIC, B. cereus. The class given is cell-based, Bacillus cereus. To be noted: organism A = B. cereus ATCC 11778. From the text: (§1) Compounds according to this invention were screened for their in vitro activities against selected species of bacteria and fungi. […]
For orientation: Broth dilution looks for growth in wells or tubes with falling amounts of substance.

The next test has as its system C. albicans ATCC 38247. In words: Antifungal MIC, C. albicans. The test is classed as cell-based, Candida albicans. To be noted: organism B = C. albicans ATCC 38247.
Description: as §1

The subject of the next test is S. aureus ATCC 13709. In words: NCCLS broth microdilution MIC, S. aureus (MSSA). The test is classed as cell-based, Staphylococcus aureus. To be noted: organism E = S. aureus ATCC 13709 (MSSA).
Description: as §1

Another test deals with E. faecalis ATCC 29212. In words: NCCLS broth microdilution MIC, E. faecalis. The class given is cell-based. To be noted: organism C = E. faecalis ATCC 29212.
Description: as §1

The subject of the next test is S. pneumoniae ATCC 49619. Nature of the test: NCCLS broth microdilution MIC, S. pneumoniae ATCC 49619. The class given is cell-based, Streptococcus pneumoniae. To be noted: organism H = S. pneumoniae ATCC 49619.
Description: as §1

A further test relates to S. aureus ATCC 27660. In words: NCCLS broth microdilution MIC, S. aureus (MRSA). To be noted: organism F = S. aureus ATCC 27660 (MRSA). The class given is cell-based, Staphylococcus aureus.
Description: as §1

Where [1] appears, read: Staphylococcus aureus, read-out: Minimum Inhibitory Concentration (MIC).

`CN(C)CCNC(=O)c1cc(NC(=O)c2ccc(NC(=O)c3cc(NC(=O)c4cc5ccccc5cn4)cn3C)cc2)cn1C` [Ic-16]: the “Minimum Inhibitory Concentration (MIC)” value in the test with B. cereus ATCC 11778 is “+++ (+++ = MIC ≦ 4)”; in the test with C. albicans ATCC 38247, more than 32 µg/mL; in the test on S. aureus ATCC 13709, “+++ (+++ = MIC ≦ 4)”; in the test with E. faecalis ATCC 29212 it was “+++ (+++ = MIC ≦ 4)”; in the test with S. pneumoniae ATCC 49619, “+++ (+++ = MIC ≦ 4)”; with S. aureus ATCC 27660 it was “+++ (+++ = MIC ≦ 4)”.
As to `CCN(CC)CCNC(=O)c1cc(NC(=O)c2cc(NC(=O)c3cc(NC(=O)c4cc5ccccc5cn4)cn3C)c[nH]2)cn1C` [Ib-89], the “Minimum Inhibitory Concentration (MIC)” value is recorded as “+++ (+++ = MIC ≦ 4)” in the test on B. cereus ATCC 11778; “+ (+ = 12 ≦ MIC ≦ 32)” with C. albicans ATCC 38247; “+++ (+++ = MIC ≦ 4)” in the test on S. aureus ATCC 13709; “+++ (+++ = MIC ≦ 4)” with E. faecalis ATCC 29212; “+++ (+++ = MIC ≦ 4)” in the test with S. pneumoniae ATCC 49619; “+++ (+++ = MIC ≦ 4)” in the test on S. aureus ATCC 27660.
As for `Cn1cc(NC(=O)c2ccc(NC(=O)c3cc(NC(=O)c4cc5ccccc5cn4)cn3C)cc2)cc1C(=O)NCCCN1CCOCC1` [Ic-11], the “Minimum Inhibitory Concentration (MIC)” value in the test with B. cereus ATCC 11778 is more than 32 µg/mL; in the test with C. albicans ATCC 38247 it was more than 32 µg/mL; in the test with S. aureus ATCC 13709 it was “+++ (+++ = MIC ≦ 4)”; in the test on E. faecalis ATCC 29212, “+++ (+++ = MIC ≦ 4)”; in the test on S. pneumoniae ATCC 49619 it was “+++ (+++ = MIC ≦ 4)”; in the test with S. aureus ATCC 27660, “+++ (+++ = MIC ≦ 4)”.
On to `Cn1cc(NC(=O)c2cc(NC(=O)c3cc(NC(=O)c4nccc5ccccc45)cn3C)cn2C)cc1C(=O)NCCN1CCOCC1` [Ib-1], for which the “Minimum Inhibitory Concentration (MIC)” value in the test on B. cereus ATCC 11778 is “+++ (+++ = MIC ≦ 4)”; in the test with C. albicans ATCC 38247, more than 32 µg/mL; in the test with E. faecalis ATCC 29212 it was “+++ (+++ = MIC ≦ 4)”; in the test on S. pneumoniae ATCC 49619 it was “+++ (+++ = MIC ≦ 4)”.
Consider `Cn1cc(NC(=O)c2cc3ccccc3cn2)cc1C(=O)Nc1cc(C(=O)Nc2ccc3sc(C(=O)NCCN4CCOCC4)cc3c2)n(C)c1` [Id-1], for which the MIC with B. cereus ATCC 11778 (Bacillus cereus, ATCC11778, read-out: Minimum Inhibitory Concentration (MIC)) was less than 4 µg/mL; in the test with C. albicans ATCC 38247 (Candida albicans, ATCC38247, read-out: Minimum Inhibitory Concentration (MIC)), more than 32 µg/mL; in the test with S. aureus ATCC 13709 (setting [1]), less than 4 µg/mL; with E. faecalis ATCC 29212 (Enterococcus faecalis, ATCC29212, read-out: Minimum Inhibitory Concentration (MIC)), less than 4 µg/mL; in the test on S. pneumoniae ATCC 49619 (Streptococcus pneumoniae, ATCC49619, read-out: Minimum Inhibitory Concentration (MIC)), less than 4 µg/mL; with S. aureus ATCC 27660 (setting [1]) it was less than 4 µg/mL.
As for `Cn1cc(NC(=O)c2cc3ccccc3cn2)cc1C(=O)Nc1cc(C(=O)Nc2cn(C)c(C(=O)NCCN3CCOCC3)n2)n(C)c1` [Ib-58], the “Minimum Inhibitory Concentration (MIC)” value with B. cereus ATCC 11778 was more than 32 µg/mL; in the test on C. albicans ATCC 38247, more than 32 µg/mL; with S. aureus ATCC 13709, “++ (++ = 4 < MIC < 12)”; in the test on E. faecalis ATCC 29212, “+++ (+++ = MIC ≦ 4)”; in the test with S. pneumoniae ATCC 49619 it was “+++ (+++ = MIC ≦ 4)”; in the test on S. aureus ATCC 27660, more than 32 µg/mL.
Take `Cc1cc(NC(=O)c2cc(NC(=O)c3nc(NC(=O)c4cc5ccccc5cn4)cn3C)cn2CCN2CCOCC2)sn1` [Ib-77]: the “Minimum Inhibitory Concentration (MIC)” value in the test on B. cereus ATCC 11778 is “+++ (+++ = MIC ≦ 4)”; in the test on C. albicans ATCC 38247, more than 32 µg/mL; with S. aureus ATCC 13709, “+++ (+++ = MIC ≦ 4)”; with E. faecalis ATCC 29212, “+++ (+++ = MIC ≦ 4)”; with S. pneumoniae ATCC 49619 it was “+++ (+++ = MIC ≦ 4)”; in the test on S. aureus ATCC 27660, “+++ (+++ = MIC ≦ 4)”.
For `Cn1cc(NC(=O)c2cc(NC(=O)c3cc(NC(=O)c4cc5ccccc5cn4)c[nH]3)cn2C)cc1C(=O)NCCN1CCCCC1` [Ib-62], the “Minimum Inhibitory Concentration (MIC)” value with B. cereus ATCC 11778 was “+++ (+++ = MIC ≦ 4)”; in the test on C. albicans ATCC 38247 it was more than 32 µg/mL; in the test with S. aureus ATCC 13709, “++ (++ = 4 < MIC < 12)”; in the test with E. faecalis ATCC 29212, “+++ (+++ = MIC ≦ 4)”; with S. pneumoniae ATCC 49619, “+++ (+++ = MIC ≦ 4)”; with S. aureus ATCC 27660 it was “+++ (+++ = MIC ≦ 4)”.
As to `CCN(CC)CCNC(=O)c1cc(NC(=O)c2ccc(NC(=O)c3cc(NC(=O)c4cc5ccccc5cn4)cn3C)cc2)cn1C` [Ic-9], the “Minimum Inhibitory Concentration (MIC)” value in the test on B. cereus ATCC 11778 is “+++ (+++ = MIC ≦ 4)”; in the test on C. albicans ATCC 38247, more than 32 µg/mL; with S. aureus ATCC 13709, “+++ (+++ = MIC ≦ 4)”; with E. faecalis ATCC 29212, “+++ (+++ = MIC ≦ 4)”; in the test with S. pneumoniae ATCC 49619, “+++ (+++ = MIC ≦ 4)”; with S. aureus ATCC 27660, “+++ (+++ = MIC ≦ 4)”.
In the case of `Cn1cc(NC(=O)c2cc(NC(=O)c3cc4ccccc4cn3)no2)cc1C(=O)OCCN1CCOCC1` [Ib-61], the “Minimum Inhibitory Concentration (MIC)” value in the test on B. cereus ATCC 11778 was more than 32 µg/mL; with C. albicans ATCC 38247 it was more than 32 µg/mL; in the test on S. aureus ATCC 13709 it was “+ (+ = 12 ≦ MIC ≦ 32)”; with E. faecalis ATCC 29212, “+++ (+++ = MIC ≦ 4)”; with S. pneumoniae ATCC 49619 it was “+++ (+++ = MIC ≦ 4)”; in the test with S. aureus ATCC 27660, “+++ (+++ = MIC ≦ 4)”.
For `CN1CCN(CCNC(=O)c2cc(NC(=O)c3ccc(NC(=O)c4cc(NC(=O)c5cc6ccccc6cn5)cn4C)cc3)cn2C)CC1` [Ic-14], the “Minimum Inhibitory Concentration (MIC)” value in the test on B. cereus ATCC 11778 is more than 32 µg/mL; in the test with C. albicans ATCC 38247, more than 32 µg/mL; in the test with S. aureus ATCC 13709, “+++ (+++ = MIC ≦ 4)”; with E. faecalis ATCC 29212 it was more than 32 µg/mL; in the test on S. pneumoniae ATCC 49619 it was “+++ (+++ = MIC ≦ 4)”; in the test with S. aureus ATCC 27660 it was “+++ (+++ = MIC ≦ 4)”.
For `CN(C)CCSCCn1cc(NC(=O)c2cc3ccccc3cn2)cc1C(=O)Nc1cc(C(=O)Nc2cc(C(=O)NCCN3CCSCC3)n(C)c2)n(C)c1` [Ib-80], the “Minimum Inhibitory Concentration (MIC)” value in the test on B. cereus ATCC 11778, with C. albicans ATCC 38247, in the test with S. aureus ATCC 13709, in the test with E. faecalis ATCC 29212, in the test on S. pneumoniae ATCC 49619 and in the test on S. aureus ATCC 27660 was “+++ (+++ = MIC ≦ 4)” throughout.
In the case of `CN(C)CCCn1cc(NC(=O)c2cc(NC(=O)c3cc4ccccc4cn3)cn2C)cc1C(=O)Nc1cc(C(=O)NCCN2CCOCC2)n(C)c1` [Ib-81], the “Minimum Inhibitory Concentration (MIC)” value is “+++ (+++ = MIC ≦ 4)” in the test with B. cereus ATCC 11778; “+ (+ = 12 ≦ MIC ≦ 32)” in the test on C. albicans ATCC 38247; “+++ (+++ = MIC ≦ 4)” with S. aureus ATCC 13709; “+++ (+++ = MIC ≦ 4)” in the test on E. faecalis ATCC 29212; “+++ (+++ = MIC ≦ 4)” in the test on S. pneumoniae ATCC 49619; “+++ (+++ = MIC ≦ 4)” in the test on S. aureus ATCC 27660.
Turning to `CN(C)CCCn1cc(NC(=O)c2cc(NC(=O)c3cc4ccccc4cn3)c[nH]2)cc1C(=O)Nc1cc(C(=O)NCCN2CCOCC2)n(C)c1` [Ib-82], the “Minimum Inhibitory Concentration (MIC)” value with B. cereus ATCC 11778 is “+++ (+++ = MIC ≦ 4)”; in the test on C. albicans ATCC 38247, “+ (+ = 12 ≦ MIC ≦ 32)”; in the test on S. aureus ATCC 13709 it was “+++ (+++ = MIC ≦ 4)”; with E. faecalis ATCC 29212, “+++ (+++ = MIC ≦ 4)”; in the test with S. pneumoniae ATCC 49619, “+++ (+++ = MIC ≦ 4)”; in the test with S. aureus ATCC 27660, “+++ (+++ = MIC ≦ 4)”.
As for `CCN(CCO)CCNC(=O)c1cc(NC(=O)c2ccc(NC(=O)c3cc(NC(=O)c4cc5ccccc5cn4)cn3C)cc2)cn1C` [Ic-18], the “Minimum Inhibitory Concentration (MIC)” value with B. cereus ATCC 11778 was “+++ (+++ = MIC ≦ 4)”; in the test with C. albicans ATCC 38247, more than 32 µg/mL; in the test on S. aureus ATCC 13709, “+++ (+++ = MIC ≦ 4)”; with E. faecalis ATCC 29212 it was “+++ (+++ = MIC ≦ 4)”; in the test with S. pneumoniae ATCC 49619, “+++ (+++ = MIC ≦ 4)”; in the test with S. aureus ATCC 27660, “+++ (+++ = MIC ≦ 4)”.
As for `Cn1cc(NC(=O)c2cc(NC(=O)c3cc(NC(=O)c4cc5ccccc5cn4)c[nH]3)cn2C)cc1C(=O)NCCc1ccncc1` [Ib-76], the “Minimum Inhibitory Concentration (MIC)” value was “+++ (+++ = MIC ≦ 4)” with B. cereus ATCC 11778; more than 32 µg/mL with C. albicans ATCC 38247; “+++ (+++ = MIC ≦ 4)” in the test with S. aureus ATCC 13709; “+++ (+++ = MIC ≦ 4)” in the test on E. faecalis ATCC 29212; “+++ (+++ = MIC ≦ 4)” in the test with S. pneumoniae ATCC 49619; “+++ (+++ = MIC ≦ 4)” with S. aureus ATCC 27660.
In the case of `Cc1cc(NC(=O)c2cc(NC(=O)c3cc(NC(=O)c4cc5ccccc5cn4)cn3C)cn2CCN2CCCC2)sn1` [Ib-65], the “Minimum Inhibitory Concentration (MIC)” value in the test with B. cereus ATCC 11778 was “+++ (+++ = MIC ≦ 4)”; with C. albicans ATCC 38247, more than 32 µg/mL; in the test with S. aureus ATCC 13709, “+++ (+++ = MIC ≦ 4)”; with E. faecalis ATCC 29212 it was “+++ (+++ = MIC ≦ 4)”; in the test with S. pneumoniae ATCC 49619 it was “+++ (+++ = MIC ≦ 4)”; in the test on S. aureus ATCC 27660, “+++ (+++ = MIC ≦ 4)”.
